Tests used:
Assay type in all cases: cell-based
[1] = test system: NCI-H23 (human lung cancer); experiment: In vitro cytotoxicity, SRB assay, NCI-H23; settings: for IC50: Homo sapiens, NCI-H23, 72 h with compound, SRB, n/a = non-active compound, read-out: NCI-H23 IC50; for NCI-H23 SI: selectivity coefficient vs normal BALB/3T3 cells
[2] = test system: PFSK-1 (malignant primitive neuroectodermal tumour); experiment: In vitro cytotoxicity, SRB assay, PFSK-1; settings: for IC50: Homo sapiens, PFSK-1, 72 h with compound, SRB, n/a = non-active compound, read-out: PFSK-1 IC50; for PFSK-1 SI: selectivity coefficient vs normal BALB/3T3 cells
[3] = test system: A2780 (human ovarian cancer); experiment: In vitro cytotoxicity, SRB assay, A2780; settings: for IC50: Homo sapiens, A2780, 72 h with compound, SRB, n/a = non-active compound, read-out: A2780 IC50; for A2780 SI: selectivity coefficient vs normal BALB/3T3 cells
[4] = test system: A2780Cis (cisplatin-resistant human ovarian cancer); experiment: In vitro cytotoxicity, SRB assay, A2780Cis; settings: for IC50: Homo sapiens, A2780cis, 72 h, read-out: A2780Cis IC50 (nM)
A375 (human melanoma) = experiment: In vitro cytotoxicity, SRB assay, A375; settings: for IC50: Homo sapiens, A-375, 72 h with compound, SRB, n/a = non-active compound, read-out: A375 IC50; for A375 SI: selectivity coefficient vs normal BALB/3T3 cells
Hs294T (human melanoma) = experiment: cells; settings: for IC50: Homo sapiens, Hs 294T, 72 h with compound, SRB, n/a = non-active compound, read-out: Hs294T IC50; for Hs294T SI: selectivity coefficient vs normal BALB/3T3 cells
[5] = test system: PLC/PRF/5 (human liver cancer); experiment: cells; settings: for IC50: Homo sapiens, PLC-PRF-5, 72 h with compound, SRB, n/a = non-active compound, read-out: PLC/PRF/5 IC50; for PLC/PRF/5 SI: selectivity coefficient vs normal BALB/3T3 cells
[6] = test system: SNU-16 (human gastric cancer); experiment: cells; settings: for IC50: Homo sapiens, SNU-16, 72 h with compound, MTT, n/a = non-active compound, read-out: SNU-16 IC50; for SNU-16 SI: selectivity coefficient vs normal BALB/3T3 cells
[7] = test system: KG-1 (human acute myeloid leukaemia); experiment: In vitro cytotoxicity, MTT assay, KG-1; settings: for IC50: Homo sapiens, 72 h with compound, MTT, n/a = non-active compound; for KG-1 SI: selectivity coefficient vs normal BALB/3T3 cells
[8] = test system: MIA PaCa-2 (human pancreatic cancer); experiment: cells; settings: for IC50: Homo sapiens, MIA PaCa-2, 72 h with compound, SRB, n/a = non-active compound, read-out: MIA PaCa-2 IC50; for MIA PaCa-2 SI: selectivity coefficient vs normal BALB/3T3 cells
[9] = test system: BALB/3T3 (normal mouse fibroblasts); experiment: In vitro cytotoxicity, SRB assay, normal BALB/3T3 fibroblasts; settings: Mus musculus, BALB/3T3; normal cells; 72 h with compound, SRB; n/a = non-active compound; read-out: BALB/3T3 IC50

Row | Structure (SMILES) | IC50 [1] | NCI-H23 SI [1] | IC50 [2] | PFSK-1 SI [2] | IC50 [3] | A2780 SI [3] | A2780Cis RI [4] | A2780Cis SI [4] | IC50 [4] | IC50 (A375 (human melanoma)) | A375 SI (A375 (human melanoma)) | IC50 (Hs294T (human melanoma)) | Hs294T SI (Hs294T (human melanoma)) | IC50 [5] | PLC/PRF/5 SI [5] | IC50 [6] | SNU-16 SI [6] | IC50 [7] | KG-1 SI [7] | IC50 [8] | also measured
1 | CC[C@@H](C(=O)[C@@H](C)[C@@H](O)[C@H](C)[C@@H]1O[C@@H]([C@@H](CC)C(=O)O)CC[C@@H]1C)[C@H]1O[C@]2(C=C[C@@H](NC(=O)NCCc3ccccc3)[C@]3(CC[C@@](C)([C@H]4CC[C@](O)(CC)[C@H](C)O4)O3)O2)[C@H](C)C[C@@H]1C [FLC-00362-1] | 62.4 nM | 2.5 | 38.4 nM | 4.0 | 11.3 nM | 13.6 | 1.1 | 12.9 | 11.9 nM | 281 nM | 0.5 | 473 nM | 0.3 | 32 nM | 4.8 | 17 nM | 9.0 | 36.8 nM | 4.2 | 73.8 nM | MIA PaCa-2 SI [8]: 2.1; IC50 [9]: 153 nM
2 | CC[C@@H](C(=O)[C@@H](C)[C@@H](O)[C@H](C)[C@@H]1O[C@@H]([C@@H](CC)C(=O)O)CC[C@@H]1C)[C@H]1O[C@]2(C=C[C@@H](NC(=O)Nc3ccc(F)cc3)[C@]3(CC[C@@](C)([C@H]4CC[C@](O)(CC)[C@H](C)O4)O3)O2)[C@H](C)C[C@@H]1C [FLC-00363-1] | 2.78 nM | 22.4 | 4.06 nM | 15.3 | 2 nM | 31.1 | 0.7 | 44.3 | 1.41 nM | 37.3 nM | 1.7 | 27.3 nM | 2.3 | 13 nM | 4.8 | 4.46 nM | 14.0 | 11.7 nM | 5.3 | 19.3 nM | MIA PaCa-2 SI [8]: 3.2; IC50 [9]: 62.2 nM
3 | CCCCNC(=S)N[C@@H]1C=C[C@]2(O[C@H]([C@@H](CC)C(=O)[C@@H](C)[C@@H](O)[C@H](C)[C@@H]3O[C@@H]([C@@H](CC)C(=O)O)CC[C@@H]3C)[C@@H](C)C[C@H]2C)O[C@@]12CC[C@@](C)([C@H]1CC[C@](O)(CC)[C@H](C)O1)O2 [FLC-00368-1] | 18.4 nM | 7.1 | 18.6 nM | 7.0 | 3.54 nM | 37.1 | 0.8 | 44.2 | 2.97 nM | 89.1 nM | 1.5 | 152 nM | 0.9 | 74.2 nM | 1.8 | 16 nM | 8.2 | 28.2 nM | 4.7 | 88.1 nM | MIA PaCa-2 SI [8]: 1.5; IC50 [9]: 131 nM
4 | CC[C@@H](C(=O)[C@@H](C)[C@@H](O)[C@H](C)[C@@H]1O[C@@H]([C@@H](CC)C(=O)O)CC[C@@H]1C)[C@H]1O[C@]2(C=C[C@@H](NC(=S)NCC(C)C)[C@]3(CC[C@@](C)([C@H]4CC[C@](O)(CC)[C@H](C)O4)O3)O2)[C@H](C)C[C@@H]1C [FLC-00369-1] | 5.98 nM | 13.8 | 5.84 nM | 14.1 | 5.08 nM | 16.2 | 0.4 | 44.8 | 1.84 nM | 49.6 nM | 1.7 | 106 nM | 0.8 | 12.4 nM | 6.6 | 16 nM | 5.1 | 11.7 nM | 7.1 | 44.7 nM | MIA PaCa-2 SI [8]: 1.8; IC50 [9]: 82.3 nM
5 | CC[C@@H](C(=O)[C@@H](C)[C@@H](O)[C@H](C)[C@@H]1O[C@@H]([C@@H](CC)C(=O)O)CC[C@@H]1C)[C@H]1O[C@]2(C=C[C@@H](NC(=O)Nc3ccc(OC)cc3)[C@]3(CC[C@@](C)([C@H]4CC[C@](O)(CC)[C@H](C)O4)O3)O2)[C@H](C)C[C@@H]1C [FLC-00371-1] | 4.54 nM | 20.4 | 5.13 nM | 18.0 | 2.35 nM | 39.3 | 0.1 | 413.4 | 0.22 nM | 43.3 nM | 2.1 | 67.7 nM | 1.4 | 12.8 nM | 7.2 | 14.8 nM | 6.2 | 22.1 nM | 4.2 | 31.3 nM | MIA PaCa-2 SI [8]: 3.0; IC50 [9]: 92.3 nM
6 | CC[C@@H](C(=O)[C@@H](C)[C@@H](O)[C@H](C)[C@@H]1O[C@@H]([C@@H](CC)C(=O)O)CC[C@@H]1C)[C@H]1O[C@]2(C=C[C@@H](NC(=S)NC3CCCCC3)[C@]3(CC[C@@](C)([C@H]4CC[C@](O)(CC)[C@H](C)O4)O3)O2)[C@H](C)C[C@@H]1C [FLC-00377-1] | 5.7 nM | 12.9 | 7.82 nM | 9.4 | 3.55 nM | 20.6 | 0.4 | 47.2 | 1.56 nM | 65.5 nM | 1.1 | 94.8 nM | 0.8 | 18.8 nM | 3.9 | 51.8 nM | 1.4 | 18.3 nM | 4.0 | 41.6 nM | MIA PaCa-2 SI [8]: 1.8; IC50 [9]: 73.3 nM
7 | CC[C@@H](C(=O)[C@@H](C)[C@@H](O)[C@H](C)[C@@H]1O[C@@H]([C@@H](CC)C(=O)O)CC[C@@H]1C)[C@H]1O[C@]2(C=C[C@@H](NC(=S)Nc3ccc(Cl)cc3)[C@]3(CC[C@@](C)([C@H]4CC[C@](O)(CC)[C@H](C)O4)O3)O2)[C@H](C)C[C@@H]1C [FLC-00378-1] | 4.12 nM | 2.5 | 3.28 nM | 3.1 | 0.55 nM | 18.3 | 0.3 | 57.0 | 0.18 nM | 36.6 nM | 0.3 | 29.4 nM | 0.3 | 2.58 nM | 3.9 | 3.21 nM | 3.2 | 19.1 nM | 0.5 | 18.4 nM | MIA PaCa-2 SI [8]: 0.5; IC50 [9]: 10.1 nM
